Results from ChEMBL document CHEMBL3885861, “Open TG-GATES”.

Species on record: Rattus norvegicus
Test: Open TG-GATES - Regimen: Single
Assay type: toxicity, organism-based, Sprague-Dawley
Design: regimen Single, gender Male, age 6 weeks
Conditions: in vivo, po, 300 mg/kg, route gavage, dose level High; for APTT / Bas / Eos / Fbg / Hb / Ht / Lym / MCH / MCHC / MCV / Mono / Neu / PT / Plat / RBC / Ret / WBC: tissue Blood; for KIDNEY_L / KIDNEY_R / KIDNEY_TOTAL: tissue Kidney; for LIVER: tissue Liver; for A/G / ALP / ALT / AST / BUN / CRE / Ca / Cl / DBIL / GLC / IP / K / LDH / Na / PL / RALB / TBIL / TC / TG / TP / gamma-GTP: tissue Plasma

## Cc1ccc(C)c(OCCCC(C)(C)C(=O)O)c1 [GEMFIBROZIL]
3 h
  TERMINAL_BW: 224.5 g
  APTT: 15.3 s
  Bas: 0%
  Eos: 0.4%
  Fbg: 299.8 mg/dL
  Hb: 13.9 g/dL
  Ht: 40.1%
  Lym: 74%
  MCH: 22.2 pg
  MCHC: 34.6%
  MCV: 64.1 fL
  Mono: 3.2%
  Neu: 20.8%
  PT: 12.2 s
  Plat: 122 x10_4/uL
  RBC: 625.6 x10_4/ul
  Ret: 7.4%
  WBC: 74.7 x10_2/uL
  KIDNEY_L: 0.9 g
  KIDNEY_R: 1 g
  KIDNEY_TOTAL: 1.9 g
  LIVER: 9.5 g
  A/G: 0.8
  ALP: 1942.2 IU/L
  ALT: 47 IU/L
  AST: 75.6 IU/L
  BUN: 13 mg/dL
  CRE: 0.2 mg/dL
  Ca: 11.4 mg/dL
  Cl: 104.6 meq/L
  DBIL: 0.2 mg/dL
  GLC: 168 mg/dL
  IP: 9.9 mg/dL
  K: 4.4 meq/L
  LDH: 75.6 IU/L
  Na: 141.2 meq/L
  PL: 188.8 mg/dL
  RALB: 2.7 g/dL
  TBIL: 0.082 mg/dL
  TC: 83.6 mg/dL
  TG: 320 mg/dL
  TP: 5.8 g/dL
  gamma-GTP: 1.2 IU/L
6 h
  TERMINAL_BW: 222.4 g
  APTT: 14.3 s
  Bas: 0%
  Eos: 0.6%
  Fbg: 305.6 mg/dL
  Hb: 13.7 g/dL
  Ht: 40%
  Lym: 77.4%
  MCH: 21 pg
  MCHC: 34.2%
  MCV: 61.3 fL
  Mono: 3.4%
  Neu: 17.8%
  PT: 11.8 s
  Plat: 122.9 x10_4/uL
  RBC: 651.8 x10_4/ul
  Ret: 6.7%
  WBC: 77.1 x10_2/uL
  KIDNEY_L: 0.9 g
  KIDNEY_R: 0.9 g
  KIDNEY_TOTAL: 1.8 g
  LIVER: 8.5 g
  A/G: 0.9
  ALP: 1762.4 IU/L
  ALT: 44.2 IU/L
  AST: 76.2 IU/L
  BUN: 9.8 mg/dL
  CRE: 0.2 mg/dL
  Ca: 11.4 mg/dL
  Cl: 106.4 meq/L
  DBIL: 0.1 mg/dL
  GLC: 171.2 mg/dL
  IP: 10.8 mg/dL
  K: 4.3 meq/L
  LDH: 61.6 IU/L
  Na: 142.6 meq/L
  PL: 171.2 mg/dL
  RALB: 2.7 g/dL
  TBIL: 0.086 mg/dL
  TC: 88.2 mg/dL
  TG: 121 mg/dL
  TP: 5.5 g/dL
  gamma-GTP: 1.2 IU/L
9 h
  TERMINAL_BW: 224.1 g
  APTT: 15 s
  Bas: 0%
  Eos: 0.6%
  Fbg: 306.4 mg/dL
  Hb: 13.7 g/dL
  Ht: 40.2%
  Lym: 75.2%
  MCH: 21.8 pg
  MCHC: 34.1%
  MCV: 64.1 fL
  Mono: 2.4%
  Neu: 21%
  PT: 11.9 s
  Plat: 117.7 x10_4/uL
  RBC: 628 x10_4/ul
  Ret: 7.8%
  WBC: 52.7 x10_2/uL
  KIDNEY_L: 1 g
  KIDNEY_R: 0.9 g
  KIDNEY_TOTAL: 1.9 g
  LIVER: 8.3 g
  A/G: 0.9
  ALP: 1746.4 IU/L
  ALT: 38.8 IU/L
  AST: 68 IU/L
  BUN: 10.6 mg/dL
  CRE: 0.2 mg/dL
  Ca: 11.3 mg/dL
  Cl: 106.2 meq/L
  DBIL: 0.1 mg/dL
  GLC: 177.6 mg/dL
  IP: 11.8 mg/dL
  K: 4.3 meq/L
  LDH: 59.4 IU/L
  Na: 143.2 meq/L
  PL: 143.8 mg/dL
  RALB: 2.7 g/dL
  TBIL: 0.076 mg/dL
  TC: 73.2 mg/dL
  TG: 59.6 mg/dL
  TP: 5.7 g/dL
  gamma-GTP: 1.4 IU/L
24 h
  TERMINAL_BW: 224.7 g
  APTT: 14.7 s
  Bas: 0%
  Eos: 0.8%
  Fbg: 320.4 mg/dL
  Hb: 13.6 g/dL
  Ht: 39.5%
  Lym: 80%
  MCH: 21.5 pg
  MCHC: 34.4%
  MCV: 62.6 fL
  Mono: 3.4%
  Neu: 15.2%
  PT: 12.2 s
  Plat: 102.6 x10_4/uL
  RBC: 631.8 x10_4/ul
  Ret: 6.3%
  WBC: 73.6 x10_2/uL
  KIDNEY_L: 1 g
  KIDNEY_R: 1 g
  KIDNEY_TOTAL: 2 g
  LIVER: 10.9 g
  A/G: 1
  ALP: 2167.4 IU/L
  ALT: 46.4 IU/L
  AST: 74 IU/L
  BUN: 12.8 mg/dL
  CRE: 0.2 mg/dL
  Ca: 11.3 mg/dL
  Cl: 105.6 meq/L
  DBIL: 0.1 mg/dL
  GLC: 189 mg/dL
  IP: 8 mg/dL
  K: 4 meq/L
  LDH: 74.8 IU/L
  Na: 141.8 meq/L
  PL: 124 mg/dL
  RALB: 2.7 g/dL
  TBIL: 0.06 mg/dL
  TC: 63.6 mg/dL
  TG: 67.2 mg/dL
  TP: 5.5 g/dL
  gamma-GTP: 1.2 IU/L
